# Measured values taken from patent US10597388B2, “Pyridazinone herbicides” (FMC CORPORATION, priority 2014, dated 2020).
# Legend:
# Test in all cases: Test E greenhouse herbicide test, pre- and postemergence
# Type in all cases: in vivo
# [1] = system: Italian ryegrass (Lolium multiflorum)
# Method in brief: (§1)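 Compounds in a non-phytotoxic solvent mixture with surfactant were applied preemergence to seeds in silt loam soil and postemergence to 2-18 cm plants (1- to 4-leaf stage) in peat-based medium. After 14 to 21 d in a greenhouse, injury was rated visually against untreated controls on a 0 (no effect) to 100 (complete control) scale.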
# [2] = system: barnyardgrass (Echinochloa crus-galli)
# Method in brief: as §1
# [3] = system: crabgrass, large (large crabgrass, Digitaria sanguinalis); conditions: Preemergence
# Method in brief: as §1
# [4] = system: dayflower (Virginia (VA) dayflower, Commelina virginica)
# Method in brief: as §1
# [5] = system: field bindweed (Convolvulus arvensis)
# Method in brief: as §1
# [6] = system: foxtail, green (green foxtail, Setaria viridis); conditions: Preemergence
# Method in brief: as §1
# [7] = system: horseweed (Conyza canadensis)
# Method in brief: as §1
# [8] = system: momingglory (Ipomoea coccinea); conditions: Preemergence
# Method in brief: as §1
# [9] = system: nutsedge, yellow (yellow nutsedge, Cyperus esculentus); conditions: Preemergence
# Method in brief: as §1
# [10] = system: waterhemp (common waterhemp, Amaranthus rudis)
# Method in brief: as §1
# [11] = 62 g ai/ha, Postemergence, scale 0 to 100 (0 no effect, 100 complete control)
# [12] = 62 g ai/ha, Preemergence, scale 0 to 100 (0 no effect, 100 complete control)
# [13] = 125 g ai/ha, Postemergence, scale 0 to 100 (0 no effect, 100 complete control)
# [14] = 125 g ai/ha, Preemergence, scale 0 to 100 (0 no effect, 100 complete control)
# [15] = 250 g ai/ha, Postemergence, scale 0 to 100 (0 no effect, 100 complete control)
# [16] = Postemergence, 31 g ai/ha, visual, scale 0 no effect to 100 complete control
# [17] = Preemergence, 31 g ai/ha, scale 0 to 100, 0 no effect, 100 complete control
# [18] = Preemergence, 250 g ai/ha, visual, scale 0 no effect to 100 complete control
# [19] = 62 g ai/ha, scale 0 to 100 (0 no effect, 100 complete control)
# [20] = 125 g ai/ha, scale 0 to 100 (0 no effect, 100 complete control)
# [21] = 250 g ai/ha, visual, scale 0 no effect to 100 complete control
# [22] = 31 g ai/ha, scale 0 to 100, 0 no effect, 100 complete control
smiles,measurement,setting,value
CCOC(=O)Oc1c(C)nn(C)c(=O)c1-c1c(C)sc2ccc(C)cc12 [Compound 82],"Plant response rating, Ryegrass, Italian",[1]; [11],70
same,"Plant response rating, Ryegrass, Italian",[1]; [12],95
same,"Plant response rating, Ryegrass, Italian",[1]; [13],75
same,"Plant response rating, Ryegrass, Italian",[1]; [14],100
same,"Plant response rating, Ryegrass, Italian",[1]; [15],80
same,"Plant response rating, Ryegrass, Italian",[1]; [16],50
same,"Plant response rating, Ryegrass, Italian",[1]; [17],75
same,"Plant response rating, Ryegrass, Italian",[1]; [18],100
same,"Plant response rating, Barnyardgrass",[2]; [11],40
same,"Plant response rating, Barnyardgrass",[2]; [12],15
same,"Plant response rating, Barnyardgrass",[2]; [13],50
same,"Plant response rating, Barnyardgrass",[2]; [14],30
same,"Plant response rating, Barnyardgrass",[2]; [15],50
same,"Plant response rating, Barnyardgrass",[2]; [16],30
same,"Plant response rating, Barnyardgrass",[2]; [17],0
same,"Plant response rating, Barnyardgrass",[2]; [18],40
same,"Plant response rating, Crabgrass, Large",[3]; [19],70
same,"Plant response rating, Crabgrass, Large",[3]; [20],80
same,"Plant response rating, Crabgrass, Large",[3]; [21],90
same,"Plant response rating, Dayflower, VA",[4]; [11],50
same,"Plant response rating, Dayflower, VA",[4]; [12],5
same,"Plant response rating, Dayflower, VA",[4]; [13],60
same,"Plant response rating, Dayflower, VA",[4]; [14],5
same,"Plant response rating, Dayflower, VA",[4]; [15],65
same,"Plant response rating, Dayflower, VA",[4]; [16],40
same,"Plant response rating, Dayflower, VA",[4]; [17],0
same,"Plant response rating, Dayflower, VA",[4]; [18],35
same,"Plant response rating, Field Bindweed",[5]; [11],80
same,"Plant response rating, Field Bindweed",[5]; [12],50
same,"Plant response rating, Field Bindweed",[5]; [13],95
same,"Plant response rating, Field Bindweed",[5]; [14],100
same,"Plant response rating, Field Bindweed",[5]; [15],85
same,"Plant response rating, Field Bindweed",[5]; [16],85
same,"Plant response rating, Field Bindweed",[5]; [17],65
same,"Plant response rating, Field Bindweed",[5]; [18],95
same,"Plant response rating, Foxtail, Green",[6]; [19],70
same,"Plant response rating, Foxtail, Green",[6]; [20],75
same,"Plant response rating, Foxtail, Green",[6]; [22],20
same,"Plant response rating, Foxtail, Green",[6]; [21],90
same,"Plant response rating, Horseweed",[7]; [11],70
same,"Plant response rating, Horseweed",[7]; [12],100
same,"Plant response rating, Horseweed",[7]; [13],75
same,"Plant response rating, Horseweed",[7]; [14],100
same,"Plant response rating, Horseweed",[7]; [15],80
same,"Plant response rating, Horseweed",[7]; [16],60
same,"Plant response rating, Horseweed",[7]; [17],90
same,"Plant response rating, Horseweed",[7]; [18],100
same,"Plant response rating, Morningglory",[8]; [19],80
same,"Plant response rating, Morningglory",[8]; [20],90
same,"Plant response rating, Morningglory",[8]; [22],70
same,"Plant response rating, Morningglory",[8]; [21],100
same,"Plant response rating, Nutsedge, Yellow",[9]; [19],10
same,"Plant response rating, Nutsedge, Yellow",[9]; [20],40
same,"Plant response rating, Nutsedge, Yellow",[9]; [22],0
same,"Plant response rating, Nutsedge, Yellow",[9]; [21],65
same,"Plant response rating, Waterhemp",[10]; [12],90
same,"Plant response rating, Waterhemp",[10]; [13],85
same,"Plant response rating, Waterhemp",[10]; [14],100
same,"Plant response rating, Waterhemp",[10]; [15],90
same,"Plant response rating, Waterhemp",[10]; [16],70
same,"Plant response rating, Waterhemp",[10]; [17],85
same,"Plant response rating, Waterhemp",[10]; [18],100
